Measured values taken from article PMC11752117 (Journal of Traditional and Complementary Medicine, 2024).

Legend:
Assay in all cases: microbe, parasite or virus in culture
Type in all cases: cell-based
SARS-CoV-2 Alpha variant = details: Severe acute respiratory syndrome coronavirus 2, A549, 48 h, read-out: IC50, inhibition of SARS-CoV-2 infection, Alpha, A549-ACE2-TMPRSS2, 1.56 to 50 μM for 2 days, n = 2
SARS-CoV-2 Delta variant = details: Severe acute respiratory syndrome coronavirus 2, A549, 48 h, read-out: IC50, inhibition of SARS-CoV-2 infection
[1] = test system: SARS-CoV-2 Omicron BA.2 variant; details: Severe acute respiratory syndrome coronavirus 2, A549, 48 h, read-out: IC50, inhibition of SARS-CoV-2 infection

## C=C1CC[C@@H]2[C@](C)(CO)[C@H](O)CC[C@@]2(C)[C@@H]1C/C=C1/C(=O)OC[C@H]1O [Andrographolide, andrographolide]
SARS-CoV-2 Alpha variant
  IC50: 7.08 µM
SARS-CoV-2 Delta variant
  IC50: 7.35 µM
[1]
  IC50: 4.62 µM
